Laboratory results: the NIST ThermoML archive (doi:10.1021/je800754w)
Numbers after ± are expanded uncertainties.

Experiment: activity coefficient (dimensionless); of the first substance listed, at infinite dilution; xn = mol fraction of the nth substance listed
Details: Liquid, Chromatography, x1 = 0

Row | SMILES | activity coefficient (302.45 K) | activity coefficient (322.35 K) | activity coefficient (342.45 K)
1 | CCCCCCCCC [nonane] + CCCCCCCCCCCCCC[P+](CCCCCC)(CCCCCC)CCCCCC.O=S(=O)([N-]S(=O)(=O)C(F)(F)F)C(F)(F)F | 1.87 ± 0.13 | 1.8 ± 0.1 | 1.74 ± 0.12
2 | CCCC=O [butanal] + CCCCCCCCCCCCCC[P+](CCCCCC)(CCCCCC)CCCCCC.O=S(=O)([N-]S(=O)(=O)C(F)(F)F)C(F)(F)F | 0.38 ± 0.03 | 0.36 ± 0.03 | 0.35 ± 0.03
3 | CC(C)OC(C)C [diisopropyl ether] + CCCCCCCCCCCCCC[P+](CCCCCC)(CCCCCC)CCCCCC.O=S(=O)([N-]S(=O)(=O)C(F)(F)F)C(F)(F)F | 0.93 ± 0.06 | 0.9 ± 0.06 | 0.87 ± 0.06
4 | CCC=O [propanal] + CCCCCCCCCCCCCC[P+](CCCCCC)(CCCCCC)CCCCCC.O=S(=O)([N-]S(=O)(=O)C(F)(F)F)C(F)(F)F | 0.35 ± 0.03 | 0.33 ± 0.03 | 0.31 ± 0.03
5 | ClC(Cl)Cl [trichloromethane] + CCCCCCCCCCCCCC[P+](CCCCCC)(CCCCCC)CCCCCC.O=S(=O)([N-]S(=O)(=O)C(F)(F)F)C(F)(F)F | 0.29 ± 0.03 | 0.31 ± 0.03 | 0.32 ± 0.03
6 | C#CCCCC [1-hexyne] + CCCCCCCCCCCCCC[P+](CCCCCC)(CCCCCC)CCCCCC.O=S(=O)([N-]S(=O)(=O)C(F)(F)F)C(F)(F)F | 0.7 ± 0.1 | 0.69 ± 0.05 | 0.67 ± 0.05
7 | CCCCCCCCCCC [undecane] + CCCCCCCCCCCCCC[P+](CCCCCC)(CCCCCC)CCCCCC.O=S(=O)([N-]S(=O)(=O)C(F)(F)F)C(F)(F)F | 2.32 ± 0.16 | 2.18 ± 0.15 | 2.1 ± 0.2
8 | CCCC(C)=O [pentan-2-one] + CCCCCCCCCCCCCC[P+](CCCCCC)(CCCCCC)CCCCCC.O=S(=O)([N-]S(=O)(=O)C(F)(F)F)C(F)(F)F | 0.31 ± 0.03 | 0.32 ± 0.03 | 0.33 ± 0.03
9 | CO [methanol] + CCCCCCCCCCCCCC[P+](CCCCCC)(CCCCCC)CCCCCC.O=S(=O)([N-]S(=O)(=O)C(F)(F)F)C(F)(F)F | 1.29 ± 0.08 | 0.98 ± 0.06 | 0.86 ± 0.06
10 | CC1CCCCC1 [methylcyclohexane] + CCCCCCCCCCCCCC[P+](CCCCCC)(CCCCCC)CCCCCC.O=S(=O)([N-]S(=O)(=O)C(F)(F)F)C(F)(F)F | 0.92 ± 0.06 | 0.89 ± 0.06 | 0.86 ± 0.06
11 | CCCCO [butan-1-ol] + CCCCCCCCCCCCCC[P+](CCCCCC)(CCCCCC)CCCCCC.O=S(=O)([N-]S(=O)(=O)C(F)(F)F)C(F)(F)F | 1.62 ± 0.11 | 1.26 ± 0.08 | 1.04 ± 0.07
12 | CCC(C)=O [butanone] + CCCCCCCCCCCCCC[P+](CCCCCC)(CCCCCC)CCCCCC.O=S(=O)([N-]S(=O)(=O)C(F)(F)F)C(F)(F)F | 0.28 ± 0.03 | 0.27 ± 0.03 | 0.23 ± 0.03
13 | C=CCCCC [hex-1-ene] + CCCCCCCCCCCCCC[P+](CCCCCC)(CCCCCC)CCCCCC.O=S(=O)([N-]S(=O)(=O)C(F)(F)F)C(F)(F)F | 0.91 ± 0.06 | 0.87 ± 0.06 | 0.85 ± 0.05
14 | Cc1ccccc1 [toluene] + CCCCCCCCCCCCCC[P+](CCCCCC)(CCCCCC)CCCCCC.O=S(=O)([N-]S(=O)(=O)C(F)(F)F)C(F)(F)F | 0.46 ± 0.04 | 0.46 ± 0.04 | 0.47 ± 0.04
15 | CCOCC [diethyl ether] + CCCCCCCCCCCCCC[P+](CCCCCC)(CCCCCC)CCCCCC.O=S(=O)([N-]S(=O)(=O)C(F)(F)F)C(F)(F)F | 0.62 ± 0.04 | 0.59 ± 0.04 | 0.57 ± 0.04
16 | c1ccccc1 [benzene] + CCCCCCCCCCCCCC[P+](CCCCCC)(CCCCCC)CCCCCC.O=S(=O)([N-]S(=O)(=O)C(F)(F)F)C(F)(F)F | 0.39 ± 0.03 | 0.39 ± 0.03 | 0.39 ± 0.03
17 | C#CCCCCC [1-heptyne] + CCCCCCCCCCCCCC[P+](CCCCCC)(CCCCCC)CCCCCC.O=S(=O)([N-]S(=O)(=O)C(F)(F)F)C(F)(F)F | 0.77 ± 0.05 | 0.78 ± 0.05 | 0.8 ± 0.05
18 | C=O [methanal] + CCCCCCCCCCCCCC[P+](CCCCCC)(CCCCCC)CCCCCC.O=S(=O)([N-]S(=O)(=O)C(F)(F)F)C(F)(F)F | 0.06 | 0.06 | 0.07 ± 0.03
19 | C1COCCO1 [1,4-dioxane] + CCCCCCCCCCCCCC[P+](CCCCCC)(CCCCCC)CCCCCC.O=S(=O)([N-]S(=O)(=O)C(F)(F)F)C(F)(F)F | 0.51 ± 0.04 | 0.49 ± 0.04 | 0.48 ± 0.04
20 | CCCCCCCC [octane] + CCCCCCCCCCCCCC[P+](CCCCCC)(CCCCCC)CCCCCC.O=S(=O)([N-]S(=O)(=O)C(F)(F)F)C(F)(F)F | 1.48 ± 0.1 | 1.42 ± 0.09 | 1.4 ± 0.1

Row | SMILES | activity coefficient (302.45 K) | activity coefficient (322.35 K) | activity coefficient (342.45 K)
21 | CC#N [acetonitrile] + CCCCCCCCCCCCCC[P+](CCCCCC)(CCCCCC)CCCCCC.O=S(=O)([N-]S(=O)(=O)C(F)(F)F)C(F)(F)F | 0.56 ± 0.04 | 0.5 ± 0.04 | 0.46 ± 0.04
22 | c1ccncc1 [pyridine] + CCCCCCCCCCCCCC[P+](CCCCCC)(CCCCCC)CCCCCC.O=S(=O)([N-]S(=O)(=O)C(F)(F)F)C(F)(F)F | 0.52 ± 0.04 | 0.41 ± 0.03 | 0.34 ± 0.03
23 | c1ccsc1 [thiophene] + CCCCCCCCCCCCCC[P+](CCCCCC)(CCCCCC)CCCCCC.O=S(=O)([N-]S(=O)(=O)C(F)(F)F)C(F)(F)F | 0.42 ± 0.04 | 0.4 ± 0.03 | 0.38 ± 0.03
24 | CCCCCCC [heptane] + CCCCCCCCCCCCCC[P+](CCCCCC)(CCCCCC)CCCCCC.O=S(=O)([N-]S(=O)(=O)C(F)(F)F)C(F)(F)F | 1.27 ± 0.08 | 1.22 ± 0.08 | 1.19 ± 0.08
25 | CCCCCCCCCC [decane] + CCCCCCCCCCCCCC[P+](CCCCCC)(CCCCCC)CCCCCC.O=S(=O)([N-]S(=O)(=O)C(F)(F)F)C(F)(F)F | 1.97 ± 0.13 | 1.89 ± 0.13 | 1.84 ± 0.12
26 | CCO [ethanol] + CCCCCCCCCCCCCC[P+](CCCCCC)(CCCCCC)CCCCCC.O=S(=O)([N-]S(=O)(=O)C(F)(F)F)C(F)(F)F | 1.56 ± 0.1 | 1.23 ± 0.08 | 1.01 ± 0.06
27 | ClC(Cl)(Cl)Cl [tetrachloromethane] + CCCCCCCCCCCCCC[P+](CCCCCC)(CCCCCC)CCCCCC.O=S(=O)([N-]S(=O)(=O)C(F)(F)F)C(F)(F)F | 0.55 ± 0.04 | 0.55 ± 0.04 | 0.55 ± 0.04
28 | CC(C)CO [2-methyl-1-propanol] + CCCCCCCCCCCCCC[P+](CCCCCC)(CCCCCC)CCCCCC.O=S(=O)([N-]S(=O)(=O)C(F)(F)F)C(F)(F)F | 1.49 ± 0.1 | 1.15 ± 0.07 | 0.95 ± 0.06
29 | CCCO [propan-1-ol] + CCCCCCCCCCCCCC[P+](CCCCCC)(CCCCCC)CCCCCC.O=S(=O)([N-]S(=O)(=O)C(F)(F)F)C(F)(F)F | 1.53 ± 0.1 | 1.21 ± 0.08 | 1 ± 0.06
30 | C1CCCCC1 [cyclohexane] + CCCCCCCCCCCCCC[P+](CCCCCC)(CCCCCC)CCCCCC.O=S(=O)([N-]S(=O)(=O)C(F)(F)F)C(F)(F)F | 0.83 ± 0.05 | 0.78 ± 0.05 | 0.75 ± 0.05
31 | C[N+](=O)[O-] [nitromethane] + CCCCCCCCCCCCCC[P+](CCCCCC)(CCCCCC)CCCCCC.O=S(=O)([N-]S(=O)(=O)C(F)(F)F)C(F)(F)F | 0.77 ± 0.05 | 0.64 ± 0.04 | 0.58 ± 0.04
32 | CCC(C)CC [3-methylpentane] + CCCCCCCCCCCCCC[P+](CCCCCC)(CCCCCC)CCCCCC.O=S(=O)([N-]S(=O)(=O)C(F)(F)F)C(F)(F)F | 1.04 ± 0.07 | 0.98 ± 0.06 | 0.94 ± 0.06
33 | CCC[N+](=O)[O-] [1-nitropropane] + CCCCCCCCCCCCCC[P+](CCCCCC)(CCCCCC)CCCCCC.O=S(=O)([N-]S(=O)(=O)C(F)(F)F)C(F)(F)F | 2.19 ± 0.15 | 1.62 ± 0.11 | 1.35 ± 0.09
34 | CC(C)O [propan-2-ol] + CCCCCCCCCCCCCC[P+](CCCCCC)(CCCCCC)CCCCCC.O=S(=O)([N-]S(=O)(=O)C(F)(F)F)C(F)(F)F |  | 1.22 ± 0.08 | 0.99 ± 0.06
35 | CCc1ccccc1 [ethylbenzene] + CCCCCCCCCCCCCC[P+](CCCCCC)(CCCCCC)CCCCCC.O=S(=O)([N-]S(=O)(=O)C(F)(F)F)C(F)(F)F | 0.54 ± 0.04 | 0.57 ± 0.04 | 0.59 ± 0.04
36 | CCCCCC [hexane] + CCCCCCCCCCCCCC[P+](CCCCCC)(CCCCCC)CCCCCC.O=S(=O)([N-]S(=O)(=O)C(F)(F)F)C(F)(F)F | 1.09 ± 0.07 | 1.04 ± 0.07 | 1.01 ± 0.06
37 | C1CCCCCC1 [cycloheptane] + CCCCCCCCCCCCCC[P+](CCCCCC)(CCCCCC)CCCCCC.O=S(=O)([N-]S(=O)(=O)C(F)(F)F)C(F)(F)F | 0.83 ± 0.05 | 1.81 ± 0.12 | 3.59 ± 0.24
38 | ClCCl [dichloromethane] + CCCCCCCCCCCCCC[P+](CCCCCC)(CCCCCC)CCCCCC.O=S(=O)([N-]S(=O)(=O)C(F)(F)F)C(F)(F)F | 0.23 ± 0.03 | 0.25 ± 0.03 | 0.27 ± 0.03
39 | CC1CCCC1 [methylcyclopentane] + CCCCCCCCCCCCCC[P+](CCCCCC)(CCCCCC)CCCCCC.O=S(=O)([N-]S(=O)(=O)C(F)(F)F)C(F)(F)F | 0.85 ± 0.05 | 0.8 ± 0.1 | 0.77 ± 0.05
